Results from PMC10287695, “Non-covalent inhibitors of thioredoxin glutathione reductase with schistosomicidal activity in vivo” (Nature Communications, 2023).
Values joined by “and” are separate entries in the source; they are usually repeats but may differ in a detail not shown here. Equal values may be shown once. Marks after values point to notes of the source that are not given here.

Legend:
TGR [1] = molecular target: T1, TGR (Schistosoma mansoni, UniProt Q962Y6); test: Reversibility by jump dilution; format: biochemical; settings: for % Activity (ID list), D0 / % Inhibition (ID list), D0: D0: diluted 1:100, activity determined immediately; for % Activity (ID list), D0 / % Inhibition (ID list), D0 / % Activity (ID list), D60 / % Inhibition (ID list), D60 / % Activity (ID list) / % Inhibition (ID list): list for plotting; for % Activity (ID list), D60 / % Inhibition (ID list), D60: D60: diluted 1:100, activity determined after 60 min; for % Activity, 0 min / Inhibitor (rate), 0 min: [0, D0]: 15 min preincubation inhibitor + TGR + NADPH, diluted 1:100, then activity determined immediately; for % Activity, 0 min / % Activity, 60 min / % Activity, -15: relative to DMSO; for % Activity, 60 min / Inhibitor (rate), 60 min: [60, D60]: 15 min preincubation inhibitor + TGR + NADPH, diluted 1:100, then activity determined after 60 min; for Inhibitor (rate), -15 / % Activity, -15: [-15]: 15 min preincubation inhibitor + TGR + NADPH, then activity determined, replicates; for Inhibitor (rate), -15 / Inhibitor (rate), 0 min / Inhibitor (rate), 60 min: raw rate; for % Activity (ID list) / % Inhibition (ID list): before dilution (-15)
T1 construct: made in house
T1 sequence (Q962Y6 1-598): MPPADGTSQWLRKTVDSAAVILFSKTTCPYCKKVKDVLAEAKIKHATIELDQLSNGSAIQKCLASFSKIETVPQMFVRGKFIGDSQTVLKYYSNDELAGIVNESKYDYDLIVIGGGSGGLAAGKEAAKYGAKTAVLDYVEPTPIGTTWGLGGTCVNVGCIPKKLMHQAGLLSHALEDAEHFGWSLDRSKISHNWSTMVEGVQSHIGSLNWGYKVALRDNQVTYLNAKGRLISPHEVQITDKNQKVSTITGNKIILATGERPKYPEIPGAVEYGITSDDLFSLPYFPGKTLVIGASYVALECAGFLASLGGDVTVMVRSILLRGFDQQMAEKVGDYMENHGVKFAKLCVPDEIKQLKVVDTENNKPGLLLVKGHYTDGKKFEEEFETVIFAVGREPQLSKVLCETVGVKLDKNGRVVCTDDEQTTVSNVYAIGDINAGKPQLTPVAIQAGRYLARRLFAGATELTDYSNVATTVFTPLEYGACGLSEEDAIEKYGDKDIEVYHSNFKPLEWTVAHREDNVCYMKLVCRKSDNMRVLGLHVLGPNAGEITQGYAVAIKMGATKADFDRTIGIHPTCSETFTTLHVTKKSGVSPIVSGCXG
Procedure: A reaction of 370 nM TGR, 100 µM NADPH, and 250 µM inhibitor was incubated for 15 min at room temperature. A 100x dilution of the reaction was made and the activity was determined immediately and after 60 min.

[2] = tested on: S. mansoni juvenile worms (21 days); test: Schistosomicidal activity ex vivo, juvenile worms (21 days); format: cell-based; settings: for % viability / viability at 5 µM / viability at 15 µM / viability at 30 µM: 23 day S. mansoni worms, 48 HR; for LD50 ex vivo S. mansoni 21 days: juvenile worms, 48 h exposure; for viability at 5 µM / viability at 15 µM / viability at 30 µM: Schistosoma mansoni; for viability at 15 µM: Conc. 15 µM; for viability at 30 µM: Conc. 30 µM
Procedure: Three-week old, female Swiss-Webster mice obtained from the Charles River were housed in the Comparative Research Center of Rush University Medical Center. Mice were infected by percutaneous tail exposure to about 200 S. mansoni or 50 S. japonicum cercaria for adult worms and about 1000 cercaria for juvenile S. mansoni worms through natural transdermal penetration of the cercariae for 1 h[81].
DMSO formulated compounds were diluted with phenol red free M199 medium or RPMI medium for NTS or juvenile and adult worms, respectively, at <1% DMSO final concentrations. NTS, juvenile and adult worms from overnight cultures were tested against compounds in triplicate. Controls were treated with DMSO alone or 5 µM AF as a positive control in appropriate medium. […] Schistosome viabilities in the presence of the compounds were assessed using this formula: % Viability = Averages of Test / Averages of DMSO Control x 100.

PfTrxR = molecular target: T2, PfTrxR (Plasmodium falciparum, UniProt Q25861); test: P. falciparum TrxR enzyme inhibition; format: biochemical
T2 construct: 6-His (N); made in house; host or cells: E. coli BL21 (DE3)
T2 sequence (Q25861 1-541): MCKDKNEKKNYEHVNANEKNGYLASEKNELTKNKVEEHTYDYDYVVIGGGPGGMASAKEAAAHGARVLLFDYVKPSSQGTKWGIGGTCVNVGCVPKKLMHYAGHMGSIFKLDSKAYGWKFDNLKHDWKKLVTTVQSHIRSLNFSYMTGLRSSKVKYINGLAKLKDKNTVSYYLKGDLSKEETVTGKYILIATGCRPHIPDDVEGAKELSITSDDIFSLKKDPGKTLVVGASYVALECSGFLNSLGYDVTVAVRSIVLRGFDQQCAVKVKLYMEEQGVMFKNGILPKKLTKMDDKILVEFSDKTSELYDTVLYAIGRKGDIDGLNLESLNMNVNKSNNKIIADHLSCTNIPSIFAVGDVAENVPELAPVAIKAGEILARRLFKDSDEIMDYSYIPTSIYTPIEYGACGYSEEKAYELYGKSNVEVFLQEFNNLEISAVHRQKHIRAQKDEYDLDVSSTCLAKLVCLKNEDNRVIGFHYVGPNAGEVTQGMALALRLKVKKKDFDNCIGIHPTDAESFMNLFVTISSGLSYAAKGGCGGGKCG
Procedure: Recombinant TGR, human TrxR1, B. malayi (Bm)TrxR and human GR proteins were expressed and purified as described[20],[69],[79]. The codon optimized sequence for P. falciparum (PfTrxR, https://www.ncbi.nlm.nih.gov/protein/CAA60574.1/) with an N-terminal 6-His tag was synthesized and inserted into pET15b (GenScript) and expressed in BL21 (DE3) cells and purified as described for human GR[20]. TGR and TrxR enzyme inhibition assays were performed in triplicate at 25 °C as described[20] in 0.1 M potassium phosphate (pH 7.4), 10 mM EDTA, 100 µM NADPH and 0.01% Tween-20. TGR, human TrxR1 and BmTrxR (all at 4 nM) and PfTrxR (50 nM) were preincubated with the compounds for 15 min. The reaction was started with addition of an equal volume of DTNB (6 mM) and NADPH (100 µM) and the increase in A412 during the first 3 min was recorded. […] The reaction was preincubated for 15 min. Activity was initiated with the addition of 1 mM GSSG and 100 μM NADPH and initial rates of NADPH oxidation were monitored at 340 nm. The reactions were done in triplicate. The IC50 was calculated in GraphPad Prism.

TGR [3] = molecular target: T1, TGR; test: Time dependence of inhibition; format: biochemical; design: avg % inhib, 0.5 hr / avg % inhib, 1 hr / avg % inhib, 2 hr / avg % inhib, 3 hr / avg % inhib, 6 hr / avg % inhib, 24 hr: tested at 50 µM
Procedure: TGR was incubated at room temperature (up to 6 h) and at 4 °C for 6 to 24 h with 50 µM inhibitor and 100 µM NADPH for the indicated times. Then DTNB (3 mM) and NADPH (100 µM) were added, and the reaction was monitored at A412 for 5 min. The assay was done in triplicate.

## CC(=O)OC[C@H]1O[C@@H]([S-])[C@H](OC(C)=O)[C@@H](OC(C)=O)[C@@H]1OC(C)=O.CCP(CC)CC.[Au+] [AF, auranofin, reference compound]
TGR [1]; 250 µM inhibitor, 100-fold jump dilution
  reversibility of TGR inhibition: irreversible
TGR [1]
  % Activity (ID list), D0: 1.9% and -0.049%
  % Inhibition (ID list), D0: 98.1% and 100.0%
  % Activity (ID list), D60: 3.7% and -3.0% and -2.8%
  % Inhibition (ID list), D60: 96.3% and 103.0% and 102.8%
  % Activity, 0 min: 1.94% and 1.91% and -0.04934%
  % Activity, 60 min: 3.69% and -3.0493% and -2.833%
  Inhibitor (rate), -15: 0.001018 and 0.001002 and 0.001033
  % Activity, -15: 0.7444% and 0.7656% and 0.7594%
  % Activity (ID list): 0.744% and 0.8% and 0.759%
  % Inhibition (ID list): 100.0%
[2]; Conc. 0.5 µM
  % viability: 50.0296%
[2]; Conc. 1 µM
  % viability: 15.8933%
[2]; Conc. 2.5 µM
  % viability: 5.6364%
[2]; Conc. 5 µM
  % viability: 0.3335%
[2]
  LD50 ex vivo S. mansoni 21 days: 0.62 ± 0.01 µM

## Cc1oc(-c2ccc3ccccc3c2)nc1CNC1CCCCCC1 [Compound 5]
PfTrxR
  inhibition at 10 µM: -1.11%
  inhibition at 25 µM: -0.0146%
  inhibition at 50 µM: -1.37%
PfTrxR; 50 µM, the highest concentration tested
  PfTrxR % inhibition at 50 µM: n.i.
TGR [3]; panel d Time Dependence, 0.5 hr
  rate, 0.5 hr: 0.06403 and 0.06491 and 0.06611
TGR [3]; panel d Time Dependence, 0.5 hr, average
  avg % inhib, 0.5 hr: 19.3871%
TGR [3]; panel d Time Dependence, 0.5 hr, replicates
  % inhib, 0.5 hr: 19.4895% and 20.5216% and 18.1503%
TGR [3]; panel d Time Dependence, 1 hr
  rate, 1 hr: 0.05507 and 0.05598 and 0.05641
TGR [3]; panel d Time Dependence, 1 hr, average
  avg % inhib, 1 hr: 24.7276%
TGR [3]; panel d Time Dependence, 1 hr, replicates
  % inhib, 1 hr: 25.2173% and 23.9092% and 25.0565%
TGR [3]; panel d Time Dependence, 2 hr
  rate, 2 hr: 0.04485 and 0.04477 and 0.04629
TGR [3]; panel d Time Dependence, 2 hr, average
  avg % inhib, 2 hr: 32.9849%
TGR [3]; panel d Time Dependence, 2 hr, replicates
  % inhib, 2 hr: 32.4141% and 34.3548% and 32.1858%
TGR [3]; panel d Time Dependence, 3 hr
  rate, 3 hr: 0.03515 and 0.03538 and 0.0359
TGR [3]; panel d Time Dependence, 3 hr, average
  avg % inhib, 3 hr: 39.3918%
TGR [3]; panel d Time Dependence, 3 hr, replicates
  % inhib, 3 hr: 39.6774% and 39.4903% and 39.0078%
TGR [3]; panel d Time Dependence, 6 hr
  rate, 6 hr: 0.02164 and 0.02197 and 0.02345
TGR [3]; panel d Time Dependence, 6 hr, average
  avg % inhib, 6 hr: 53.9938%
TGR [3]; panel d Time Dependence, 6 hr, replicates
  % inhib, 6 hr: 54.1525% and 54.5887% and 53.2403%
TGR [3]; panel d Time Dependence, 24 hr
  rate, 24 hr: 0.00977 and 0.01005 and 0.01035
TGR [3]; panel d Time Dependence, 24 hr, average
  avg % inhib, 24 hr: 73.1913%
TGR [3]; panel d Time Dependence, 24 hr, replicates
  % inhib, 24 hr: 73.884% and 73.0491% and 72.6408%
TGR [1]
  % Activity (ID list), D0: 94.7% and 95.5% and 104.1%
  % Inhibition (ID list), D0: 5.3% and 4.5% and -4.1%
  % Activity (ID list), D60: 114.3% and 110.2%
  % Inhibition (ID list), D60: -11.2% and -14.3% and -10.2%
  Inhibitor (rate), 0 min: 0.0437 and 0.04487 and 0.04514
  % Activity, 0 min: 94.6912% and 95.4681% and 104.129%
  Inhibitor (rate), 60 min: 0.04807 and 0.05093 and 0.05141
  % Activity, 60 min: 111.196% and 114.27% and 110.156%
  Inhibitor (rate), -15: 0.01816 and 0.01807 and 0.01832
  % Activity, -15: 52.6988% and 50.0277% and 51.6493%
  % Activity (ID list): 52.7% and 50.0% and 51.6%
  % Inhibition (ID list): 47.3% and 50.0% and 48.4%
[2]; Conc. 5 µM
  viability at 5 µM: 65.4%
[2]
  viability at 15 µM: 52.1%
  viability at 30 µM: 36.8%
  LD50 ex vivo S. mansoni 21 days: 16.9 ± 2.80 µM

## C#CCN(Cc1nc(-c2ccccc2)oc1C)[C@@H]1C[C@@H]2C[C@H]([C@H]1C)C2(C)C [Compound 6]
TGR [3]; panel c, time 0 (time unit not given), replicates
  TGR activity relative to dmso, time 0: 3.265 and 0.9012
TGR [3]; panel c, time 5 (time unit not given), replicates
  TGR activity relative to dmso, time 5: 0.7526 and -0.07048 and -0.5247
TGR [3]; panel c, time 10 (time unit not given), replicates
  TGR activity relative to dmso, time 10: 0.5708 and -0.4368 and -0.3757
TGR [3]; panel c, time 15 (time unit not given), replicates
  TGR activity relative to dmso, time 15: 0.7215 and 0.1963 and -0.1983
TGR [3]; panel c, time 30 (time unit not given), replicates
  TGR activity relative to dmso, time 30: 2.551 and 1.111 and 1.493
TGR [1]
  % Activity (ID list), D0: 75.6% and 75.7% and 80.1%
  % Inhibition (ID list), D0: 24.4% and 24.3% and 19.9%
  % Activity (ID list), D60: 78.0% and 78.9% and 78.3%
  % Inhibition (ID list), D60: 22.0% and 21.1% and 21.7%
  Inhibitor (rate), 0 min: 0.03741 and 0.03869 and 0.04167
  % Activity, 0 min: 75.6216% and 75.6995% and 80.0576%
  Inhibitor (rate), 60 min: 0.03652 and 0.03852 and 0.03804
  % Activity, 60 min: 78.0175% and 78.8698% and 78.3361%
  Inhibitor (rate), -15: 0.0007205 and 0.001179 and -0.0005968
  % Activity, -15: 1.808% and 2.913% and -1.39%
  % Activity (ID list): 2.9% and -1.4%
  % Inhibition (ID list): 98.2% and 97.1% and 101.4%
[2]; Conc. 5 µM
  viability at 5 µM: 73.2%
[2]
  viability at 15 µM: 60.7%
  viability at 30 µM: 56.8%
  LD50 ex vivo S. mansoni 21 days: >30^a µM
